Assay results taken from ChEMBL document CHEMBL1795325, “Studying synergism of methyl linked cyclohexyl thiophenes with triazole: synthesis and their cdk5/p25 inhibition activity” (Eur J Med Chem, 2011).

How the values were obtained:
[1] = biological target: Cyclin-dependent kinase 5/CDK5 activator 1 (Homo sapiens, UniProt Q00535); assay type: protein-complex assay
[2] = biological target: Cyclin-dependent kinase 2/cyclin E1 (Homo sapiens, UniProt P24941); experiment: Inhibition of CDK2/Cyclin E by scintillation proximity assay; assay type: protein-complex assay
[3] = Selectivity ratio, ratio of IC50 for CDK2/Cyclin E to IC50 for CDK5/p25
Vero = experiment: Cytotoxicity against african green monkey Vero C1008 cells at 6.25 to 50 ug/ml by neutral red uptake assay; assay type: cell-based; settings: chlorocebus sabaeus

Cyclin-dependent kinase 5/CDK5 activator 1, sequence (Q00535 whole entry): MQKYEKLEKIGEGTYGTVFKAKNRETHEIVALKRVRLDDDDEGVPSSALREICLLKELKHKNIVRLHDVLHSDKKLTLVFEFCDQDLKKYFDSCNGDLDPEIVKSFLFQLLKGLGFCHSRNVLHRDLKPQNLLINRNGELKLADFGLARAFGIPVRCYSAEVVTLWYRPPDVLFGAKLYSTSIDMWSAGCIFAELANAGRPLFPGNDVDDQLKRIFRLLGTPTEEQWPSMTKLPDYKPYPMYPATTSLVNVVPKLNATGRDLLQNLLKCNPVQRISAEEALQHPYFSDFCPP
Cyclin-dependent kinase 5/CDK5 activator 1, sequence (Q15078 whole entry, further chain): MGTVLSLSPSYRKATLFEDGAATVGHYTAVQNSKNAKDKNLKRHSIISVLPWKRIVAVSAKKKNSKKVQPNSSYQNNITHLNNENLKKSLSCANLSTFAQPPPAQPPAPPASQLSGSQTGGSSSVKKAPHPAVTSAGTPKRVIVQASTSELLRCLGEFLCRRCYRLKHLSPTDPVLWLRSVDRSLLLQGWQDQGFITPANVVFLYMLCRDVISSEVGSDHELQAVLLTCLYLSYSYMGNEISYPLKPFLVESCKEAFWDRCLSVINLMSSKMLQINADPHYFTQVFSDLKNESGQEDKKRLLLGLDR

| SMILES | IC50 [1] [µM] | IC50 [2] [µM] | Ratio IC50 [3] | Activity (Vero) |
| --- | --- | --- | --- | --- |
| CC(=O)Nc1sc2c(c1Cc1nnc(SCC(=O)NN)n1NC(=O)c1ccc(Cl)cc1)CCCC2 | 0.064 | 0.587 | 9.2 |  |
| NNC(=O)CSc1nnc(Cc2c(NC(=O)CCl)sc3c2CCCC3)n1NC(=O)c1ccccc1 | 0.037 | 0.487 | 13.2 | Non-toxic |
| O=C(CSc1nnc(Cc2c(NC(=O)CCl)sc3c2CCCC3)n1NC(=O)c1ccc(Cl)cc1)N/N=C/c1ccccc1 | 0.035 | 0.048 | 1.4 | Non-toxic |
| Nn1c(S)nnc1Cc1c(NC(=O)CCl)sc2c1CCCC2 | 0.043 | 0.052 | 1.2 | Non-toxic |
| CC(=O)Nn1c(Cc2c(NC(=O)CCl)sc3c2CCCC3)nnc1SCC(=O)NN | 0.061 | 5.99 | 98.1 | Non-toxic |
| N#CCSc1nnc(Cc2c(NC(=O)CCl)sc3c2CCCC3)n1NC(=O)c1ccc(Cl)cc1 | 0.058 | 1.14 | 19.6 | Non-toxic |
| COC(=O)CSc1nnc(Cc2c(NC(=O)CCl)sc3c2CCCC3)n1NC(=O)c1ccc(Cl)cc1 | 0.443 |  |  | Non-toxic |
| O=C(Cc1c(NC(=O)c2ccccc2)sc2c1CCCC2)NNC(=S)[S-].[K+] | 0.373 |  |  | Non-toxic |
| O=C(CSc1nnc(Cc2c(NC(=O)CCl)sc3c2CCCC3)n1NC(=O)c1ccccc1)N/N=C/c1ccccc1 | 0.032 | 0.56 | > 17.5 | Non-toxic |
| CC(=O)Nn1c(Cc2c(NC(=O)CCl)sc3c2CCCC3)nnc1SCC(=O)N/N=C/c1ccccc1 | 0.336 |  |  | Non-toxic |
| CC(=O)Nn1c(Cc2c(NC(=O)CCl)sc3c2CCCC3)nnc1SCC#N | 0.061 | 1.32 | 21.6 | Non-toxic |
| NNC(=O)CSc1nnc(Cc2c(NC(=O)CCl)sc3c2CCCC3)n1NC(=O)c1ccc(Cl)cc1 | 0.039 | 0.799 | 20.5 | Non-toxic |
| O=C(CSc1nnc(Cc2c(NC(=O)CCl)sc3c2CCCC3)n1NC(=O)c1ccccc1)NNC(=O)c1ccccc1 | 0.468 |  |  | Non-toxic |
| CC(=O)Nn1c(Cc2c(NC(=O)CCl)sc3c2CCCC3)nnc1SCc1n[nH]c(=S)n1N | 4.03 |  |  | Non-toxic |
| O=C(CCl)Nc1sc2c(c1Cc1n[nH]c(=S)n1NC(=O)c1ccccc1)CCCC2 | 0.751 |  |  | Non-toxic |
| CC(=O)Nn1c(Cc2c(NC(=O)CCl)sc3c2CCCC3)n[nH]c1=S | 0.689 |  |  | Non-toxic |
| CC(=O)NNC(=O)CSc1nnc(Cc2c(NC(=O)CCl)sc3c2CCCC3)n1NC(=O)c1ccc(Cl)cc1 | 0.468 |  |  | Non-toxic |
